The results in this text go back to patent US20260226086A1, “COMPOUNDS AND COMPOSITIONS AS STAT3 DEGRADERS AND USES THEREOF” (REGENTS OF THE UNIVERSITY OF MICHIGAN, priority 2023, published 2026).

What all share (format): cell-based
Experiment [1] deals with SU-DHL-1 cells. The experiment can be described thus: CellTiter-Glo 2.0 cell viability assay, SU-DHL-1. Conditions: Homo sapiens, 96 h, 4 days. The procedure: (§1) For example, cell viability may be determined by CellTiter-Glo 2.0 Cell Viability Assay. In a typical procedure, cells seeded at certain amounts of cells (e.g., 1000 cells) per well are incubated with serially diluted compounds for certain period (e.g., 4 days) under certain conditions (e.g., at 37° C. with 5% CO2). At the end of treatment, CellTiter-Glo 2.0 is added to the wells and luminescence is acquired on TECAN SPARK plate reader. Untreated cells are used as control, Data points are fit with an equation (e.g., a four-parameter equation) to generate a concentration-response curve. IC50 values are calculated using a nonlinear regression analysis of the mean±SD from triplicate.
(§2) SU-DHL-1 and SUP-M2 cell viability was determined by CellTiter-Glo 2.0 Cell Viability Assay (Promega). SU-DHL-1 cell line was purchased from ATCC (Manassas, VA) and SUP-M2 (ACC-509) was purchased from DSMZ (Germany). RPMI 1640 medium and fetal bovine serum (FBS) were purchased from Gibco/Thermo Fisher Scientific. In a typical procedure, cells seeded at 1000 cells per well in 384-well white plates (Corning) were incubated with serially diluted compounds for 4 days at 37° C. with 5% C02. At the end of treatment, CellTiter-Glo 2.0 was added to the wells and luminescence was acquired on TECAN SPARK plate reader. Untreated cells were used as control. Data points were fit with a four-parameter equation to generate a concentration-response curve. IC50 values were calculated using a nonlinear regression analysis of the mean±SD from triplicate.
A general note: Cellular ATP, detected with luciferase, serves as a proxy for viable cell number.

For experiment [2], the target named is T1, STAT3 (Homo sapiens, UniProt P40763).
T1 construct: This cell line is a clone created by using CRISPR-Cas9 to fuse HiBiT to the 3′ end of STAT3 in HeLa cells; host or cells: STAT3-HiBiT KI HeLa cell line (CRISPR-Cas9 knock-in clone)
The experiment is described as follows: HiBiT assay, STAT3 degradation in STAT3-HiBiT KI HeLa cells. Conditions: for DC50: read-out: STAT3 Degradation (HeLa 24 h HiBit) DC50. The protocol: STAT3 degradation may be determined by HiBiT assay. STAT3-HiBiT KI HeLa cell line, which is a clone created by using CRTISPR-Cas9 to fuse HiBiT to the 3′ end of STAT3 in HeLa cells, may be used for this assay. In a typical procedure, cells seeded at certain amounts of cells (e.g., 20000 cells) per well are incubated with serially diluted compounds for certain period of time (e.g., 24 hours) under certain conditions (e.g., at 37° C. with 5% CO2). At the end of treatment, Nano-Glo HiBiT Lytic Detection reagents is added to the wells and luminescence is acquired on TECAN SPARK plate reader. Untreated cells are used as control. Data points are fit with a four-parameter equation to generate a concentration-response curve. IC50 values are calculated using a nonlinear regression analysis of the mean±SD from triplicate.
STAT3-HiBiT KI HeLa cell line was purchased from Promega. This cell line is a clone created by using CRISPR-Cas9 to fuse HiBiT to the 3′ end of STAT3 in HeLa cells. DMEM medium and FBS were purchased from Gibco/Thermo Fisher Scientific. STAT3 degradation was determined based on quantification of luminescent signal using Nano-Glo HiBiT Lytic Detection System. In a typical procedure, cells seeded at 20000 cells per well in 96-well white plates (Corning) were incubated with serially diluted compounds for 24 hours at 37° C. with 5% CO2. At the end of treatment, Nano-Glo HiBiT Lytic Detection reagents was added to the wells and luminescence was acquired on TECAN SPARK plate reader. Untreated cells were used as control. Data points were fit with a four-parameter equation to generate a concentration-response curve. IC50 values were calculated using a nonlinear regression analysis of the mean±SD from triplicate.
On the technique in general: The HiBiT peptide binds its large partner to form an active luciferase.

Experiment [3] concerns SUP-M2 cells. The experiment can be described thus: CellTiter-Glo 2.0 cell viability assay, SUP-M2. Conditions: SUP-M2, 96 h, 4 days. The procedure:
as §1, §2

Where two headings read alike, the source gives them in different places.

T1 sequence (P40763 whole entry): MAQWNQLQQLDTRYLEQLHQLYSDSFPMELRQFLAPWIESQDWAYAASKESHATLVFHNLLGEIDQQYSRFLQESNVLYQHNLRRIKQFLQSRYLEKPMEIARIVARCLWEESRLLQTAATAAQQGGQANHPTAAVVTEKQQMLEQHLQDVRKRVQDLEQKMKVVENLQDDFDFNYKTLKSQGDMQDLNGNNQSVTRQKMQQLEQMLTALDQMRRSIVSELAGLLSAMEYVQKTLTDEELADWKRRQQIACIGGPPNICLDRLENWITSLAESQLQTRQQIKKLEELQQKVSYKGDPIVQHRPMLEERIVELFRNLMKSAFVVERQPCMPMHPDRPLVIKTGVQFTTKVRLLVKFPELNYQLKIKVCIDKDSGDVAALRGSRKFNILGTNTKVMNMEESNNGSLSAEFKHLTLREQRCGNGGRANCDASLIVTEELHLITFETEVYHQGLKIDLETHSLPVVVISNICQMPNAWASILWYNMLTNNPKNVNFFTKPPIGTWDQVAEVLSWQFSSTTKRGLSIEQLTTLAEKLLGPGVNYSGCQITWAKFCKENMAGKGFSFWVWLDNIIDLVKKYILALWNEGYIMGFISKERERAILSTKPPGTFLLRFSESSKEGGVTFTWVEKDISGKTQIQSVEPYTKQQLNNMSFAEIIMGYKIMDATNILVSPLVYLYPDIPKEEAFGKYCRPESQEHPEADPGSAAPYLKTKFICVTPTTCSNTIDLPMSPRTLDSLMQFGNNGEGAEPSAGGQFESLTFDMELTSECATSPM

What is called IC50 is the concentration that gives 50% inhibition. One may read the Dmax as the greatest extent of degradation seen. A low value points to shallow degradation. By DC50 is commonly meant the midpoint of the concentration-degradation curve. As for `Cc1ncsc1-c1ccc([C@H](C)NC(=O)[C@@H]2C[C@@H](O)CN2C(=O)[C@@H](n2cc(CCCCC(=O)N3CC[C@H]4CC[C@@H](C(=O)N[C@@H](CCC(N)=O)COc5cccc(Cl)c5)N4C(=O)[C@@H](NC(=O)c4cc5cc(C(=O)P(=O)(O)O)ccc5[nH]4)C3)nn2)C(C)(C)C)cc1` [Compound 12, (2-(((5S,8S,10aR)-8-(((S)-5-amino-1-(3-chlorophenoxy)-5-oxopentan-2-yl)carbamoyl)-3-(5-(1-((S)-1-((2S,4R)-4-hydroxy-2-(((S)-1-(4-(4-methylthiazol-5-yl)phenyl)ethyl)carbamoyl)pyrrolidin-1-yl)-3,3-dimethyl-1-oxobutan-2-yl)-1H-1,2,3-triazol-4-yl)pentanoyl)-6-oxodecahydropyrrolo[1,2-a][1,5]diazocin-5-yl)carbamoyl)-1H-indole-5-carbonyl)phosphonic acid], the half-maximal inhibitory concentration (IC50) lay within 100 to 1000 nM in experiment [1] and 10 to 100 nM in experiment [3]. In experiment [2] (24 h, @1 μM), this molecule registered a maximal degradation (Dmax) at 1 µM greater than 80%. For the same molecule, in experiment [2] (24 h), the DC50 was 10 to 100 nM.

`CCS(=O)(=O)c1ccc(CNC(=O)[C@H](CCC(N)=O)NC(=O)[C@@H]2CC[C@@H]3CCN(C(=O)CCCCc4cn([C@@H](C(=O)N5C[C@H](O)C[C@H]5C(=O)N[C@H](C)c5ccc(-c6scnc6C)cc5)C5CCOCC5)nn4)C[C@H](NC(=O)c4cc5cc(C(=O)P(=O)(O)O)ccc5[nH]4)C(=O)N32)cc1` [Compound 24, (2-(((5S,8S,10aR)-8-(((S)-5-amino-1-((4-(ethylsulfonyl)benzyl)amino)-1,5-dioxopentan-2-yl)carbamoyl)-3-(5-(1-((R)-2-((2S,4R)-4-hydroxy-2-(((R)-1-(4-(4-methylthiazol-5-yl)phenyl)ethyl)carbamoyl)pyrrolidin-1-yl)-2-oxo-1-(tetrahydro-2H-pyran-4-yl)ethyl)-1H-1,2,3-triazol-4-yl)pentanoyl)-6-oxodecahydropyrrolo[1,2-a][1,5]diazocin-5-yl)carbamoyl)-1H-indole-5-carbonyl)phosphonic acid]: the half-maximal inhibitory concentration (IC50) in experiment [1] and in experiment [3] was less than 10 nM in each case. The same molecule yielded a Dmax at 1 µM in experiment [2] (24 h, @1 μM) greater than 80%. Further, the 50% degradation concentration (DC50) in experiment [2] was less than 10 nM.

As for `COCCOCCOCCOCCN1CC[C@H]2CC[C@@H](C(=O)N[C@@H](CCC(N)=O)COc3cccc(CCCc4cn([C@H](C(=O)N5C[C@H](O)C[C@H]5C(=O)N[C@@H](C)c5ccc(-c6scnc6C)cc5)C(C)(C)C)nn4)c3Cl)N2C(=O)[C@@H](NC(=O)c2cc3cc(C(=O)P(=O)(O)O)ccc3[nH]2)C1` [Compound 31, (2-(((5S,8S,10aR)-8-(((S)-5-amino-1-(2-chloro-3-(3-(1-((S)-1-((2S,4R)-4-hydroxy-2-(((S)-1-(4-(4-methylthiazol-5-yl)phenyl)ethyl)carbamoyl)pyrrolidin-1-yl)-3,3-dimethyl-1-oxobutan-2-yl)-1H-1,2,3-triazol-4-yl)propyl)phenoxy)-5-oxopentan-2-yl)carbamoyl)-6-oxo-3-(2,5,8,11-tetraoxatridecan-13-yl)decahydropyrrolo[1,2-a][1,5]diazocin-5-yl)carbamoyl)-1H-indole-5-carbonyl)phosphonic acid], the IC50 in experiment [1] and in experiment [3] was 10 to 100 nM in each case. The molecule further gave a maximal degradation (Dmax) at 1 µM in experiment [2] (24 h, @1 μM) greater than 80%. For the same molecule, the half-maximal degradation concentration (DC50) in experiment [2] (24 h) lay within 10 to 100 nM.

In the case of `CCS(=O)(=O)c1ccc(CNC(=O)[C@H](CCC(N)=O)NC(=O)[C@@H]2CC[C@@H]3CCN(C(=O)CCCCc4cn([C@@H](C(=O)N5C[C@H](O)C[C@H]5C(=O)N[C@H](C)c5ccc(-c6scnc6C)cc5)C5CCCCC5)nn4)C[C@H](NC(=O)c4cc5cc(C(=O)P(=O)(O)O)ccc5[nH]4)C(=O)N32)cc1` [Compound 20, (2-(((5S,8S,10aR)-8-(((S)-5-amino-1-((4-(ethylsulfonyl)benzyl)amino)-1,5-dioxopentan-2-yl)carbamoyl)-3-(5-(1-((R)-1-cyclohexyl-2-((2S,4R)-4-hydroxy-2-(((R)-1-(4-(4-methylthiazol-5-yl)phenyl)ethyl)carbamoyl)pyrrolidin-1-yl)-2-oxoethyl)-1H-1,2,3-triazol-4-yl)pentanoyl)-6-oxodecahydropyrrolo[1,2-a][1,5]diazocin-5-yl)carbamoyl)-1H-indole-5-carbonyl)phosphonic acid], the IC50 in experiment [1] and in experiment [3] was less than 10 nM throughout. This molecule also displayed a Dmax at 1 µM in experiment [2] (24 h, @1 μM) greater than 80%. The DC50 in experiment [2] (24 h) is less than 10 nM.

`CCS(=O)(=O)c1ccc(CNC(=O)[C@H](CCC(N)=O)NC(=O)[C@@H]2CC[C@@H]3CCN(C(=O)CCCCc4cn([C@@H](C(=O)N5C[C@H](O)C[C@H]5C(=O)N[C@H](C)c5ccc(-c6scnc6C)cc5)C5CCN(C(C)=O)CC5)nn4)C[C@H](NC(=O)c4cc5cc(C(=O)P(=O)(O)O)ccc5[nH]4)C(=O)N32)cc1` [Compound 22, (2-(((5S,8S,10aR)-3-(5-(1-((R)-1-(1-acetylpiperidin-4-yl)-2-((2S,4R)-4-hydroxy-2-(((R)-1-(4-(4-methylthiazol-5-yl)phenyl)ethyl)carbamoyl)pyrrolidin-1-yl)-2-oxoethyl)-1H-1,2,3-triazol-4-yl)pentanoyl)-8-(((S)-5-amino-1-((4-(ethylsulfonyl)benzyl)amino)-1,5-dioxopentan-2-yl)carbamoyl)-6-oxodecahydropyrrolo[1,2-a][1,5]diazocin-5-yl)carbamoyl)-1H-indole-5-carbonyl)phosphonic acid] returned a Dmax at 1 µM in experiment [2] (24 h, @1 μM) greater than 80%. For the same molecule, in experiment [2] (24 h), the DC50 is less than 10 nM. Besides, the IC50 in experiment [3] was less than 10 nM.

As for `CCS(=O)(=O)c1ccc(CNC(=O)[C@H](CCC(N)=O)NC(=O)[C@@H]2CC[C@@H]3CCN(C(=O)CCCCc4cn([C@@H](C(=O)N5C[C@H](O)C[C@H]5C(=O)N[C@H](C)c5ccc(-c6scnc6C)cc5)C5CCN(C)CC5)nn4)C[C@H](NC(=O)c4cc5cc(C(=O)P(=O)(O)O)ccc5[nH]4)C(=O)N32)cc1` [Compound 21, (2-(((5S,8S,10aR)-8-(((S)-5-amino-1-((4-(ethylsulfonyl)benzyl)amino)-1,5-dioxopentan-2-yl)carbamoyl)-3-(5-(1-((R)-2-((2S,4R)-4-hydroxy-2-(((R)-1-(4-(4-methylthiazol-5-yl)phenyl)ethyl)carbamoyl)pyrrolidin-1-yl)-1-(1-methylpiperidin-4-yl)-2-oxoethyl)-1H-1,2,3-triazol-4-yl)pentanoyl)-6-oxodecahydropyrrolo[1,2-a][1,5]diazocin-5-yl)carbamoyl)-1H-indole-5-carbonyl)phosphonic acid], the Dmax at 1 µM in experiment [2] (24 h, @1 μM) was greater than 80%. For the same molecule, the 50% degradation concentration (DC50) in experiment [2] (24 h) is less than 10 nM. In experiment [3], the IC50 is less than 10 nM.

For the molecule `COCCOCCOC[C@H](NC(=O)[C@@H]1C[C@@H](O)CN1C(=O)[C@@H](n1cc(CCCc2cccc(OC[C@H](CCC(N)=O)NC(=O)[C@@H]3CC[C@@H]4CCN(C(C)=O)C[C@H](NC(=O)c5cc6cc(C(=O)P(=O)(O)O)ccc6[nH]5)C(=O)N43)c2Cl)nn1)C(C)(C)C)c1ccc(-c2scnc2C)cc1` [Compound 41, (2-(((5S,8S,10aR)-3-acetyl-8-(((S)-5-amino-1-(2-chloro-3-(3-(1-((S)-1-((2S,4R)-4-hydroxy-2-(((R)-2-(2-(2-methoxyethoxy)ethoxy)-1-(4-(4-methylthiazol-5-yl)phenyl)ethyl)carbamoyl)pyrrolidin-1-yl)-3,3-dimethyl-1-oxobutan-2-yl)-1H-1,2,3-triazol-4-yl)propyl)phenoxy)-5-oxopentan-2-yl)carbamoyl)-6-oxodecahydropyrrolo[1,2-a][1,5]diazocin-5-yl)carbamoyl)-1H-indole-5-carbonyl)phosphonic acid], the DC50 in experiment [2] (24 h) is 10 to 100 nM. Moreover, in experiment [2] (@1 μM), the “STAT3 Degradation (HeLa 24 h HiBit) Dmax (@1 μM)” value is listed as “A (A (>=80%))”. In addition, the half-inhibitory concentration (IC50) in experiment [3] lay within 10 to 100 nM.
